The values below are quoted from earlier work in US7147875B2, “Method and composition for relieving symptoms of arthritis and gout using fruit of miracles” (priority 2004, dated 2006).

Turning to `COc1cc2c(c(OC)c1OC)-c1ccc(OC)c(=O)cc1[C@@H](NC(C)=O)CC2` [colchicine], under “from starting treatment”, the “Time until the pain is completely relieved” value was 48 h and the “Time until the pain subsides” value was at most 12 h. In addition, for the setting “in vivo”, the “Reducing pain, swelling and inflammation associated with acute gout attacks” value is listed as “effective”; the “Uric acid levels in the bloodstream” value is on record as “does not decrease”.
